Data: patent US20150352131A1, “Compositions and Methods for the Prevention and Treatment of Osteolysis and Osteoporosis” (RHODE ISLAND HOSPITAL, priority 2013, published 2015)
Entries after “also recorded” stand apart in the source; their conditions may differ. Read-outs that look alike come from different tables or passages of the source.

Legend:
[1] = system: prostate cancer; conditions: delivered as loaded nanoparticles conjugated to T cells; cited from earlier work
[2] = system: osteoclasts; experiment: Pit assay, osteoclast-mediated bone resorption on dentin slices; format: cell-based, mice
Text: TRAP staining was used to identify multinucleated osteoclasts in osteoclastogenic cell cultures or tibia section. Briefly, tibia from control and Shp2 mutant mice were fixed in 4% paraformaldehyde overnight and then decalcified in EDTA solution (14%) till bone tissue was soft. The specimens were then dehydrated according standard procedures and embedded for sectioning. TRAP^+ multinucleated osteoclasts (>3 nuclei) were quantified with the use of a Nikon digital microscope. Osteoclast-mediated bone resorptive activity was quantified using the pit assay (Xu D, et al. (2004) Biochemical Journal 383(Pt 2):219-225). Ethanol-sterilized slices of bovine bone were disposed in individual wells of a 48 well/plate with 1 mL osteoclast culture medium containing 2.5×10^4 BM macrophages (BMM) per well. After 8 to 10 days, all cellular components were removed from bone slices with a brief (10 minute) treatment with 5% sodium hypochlorite. […] The effect of Shp2 inhibition on osteoclast-mediated bone resorption was also studied in order to further test whether pharmacological inhibition of Shp2 could serve as a treatment modality. BMM were cultured on dentin slices in osteoclast medium and in the presence or absence of Shp2 inhibitor NSC-87877 (50 μM) (FIGS. 10A-B).

[3] = mice given NSC-87877, cited from earlier work
[4] = system: osteoclastogenic genes c-Fos, Nfatc1, MMP9, Trap, and Ctsk in bone marrow derived macrophages (BMM); experiment: qRT-PCR of osteoclastogenic gene expression in BMM induced by polyethylene or titanium particles; format: cell-based, mice; conditions: BMM with PeP or TiP, NSC87877 50 uM, 5 days of culture, normalized to GAPDH
Protocol: The average size of PeP and TiP is about […] in diameter (FIGS. 8A-B), within the range of orthopedic implant debris size; these particles can be efficiently engulfed by BMM and trigger their osteoclastogenic differentiation (FIGS. 8C-D). 5×10^5 BMM were cultured in BMM medium containing about 2×10^6 of PeP or TiP in the presence or absence of Shp2 inhibitor NSC87877 (50 uM). BMM cultured in osteoclast media (DMEM supplemented with 10% FCS, 10 ng/mL M-CSF, and 100 ng/mL RANKL) were used as a positive control. Total RNA was extracted from BMM after 5 days of culture using RNeasy mini kit (Qiagen, Valencia, Calif.). cDNA was synthesized using 1 μg total RNA with iSCRIPT™ cDNA Synthesis Kit (Bio-Rad, Hercules, Calif.) and q-PCR was performed with RT2SYBR® Green qPCR kit (Bio-Rad) on a CFX384 real-time PCR machine. Osteoclastogenic gene expressions in BMM were measured and normalized to Glyceraldehyde 3-phosphate dehydrogenase (GAPDH); their levels were then compared between NSC87877 treated and untreated groups.

[5] = system: BM-derived pre-osteoclast cultures (wild type bone marrow cells); experiment: TRAP staining of multinucleated osteoclasts in ex vivo osteoclast culture; format: cell-based, mice; conditions: FIG. 5: NSC-87877 50 nM, Aldronates 25 nM, or combination
Protocol: Whole bone marrow (BM) was flushed from the explanted femurs and tibiae of euthanized mice with DMEM (Invitrogen, N.Y), and centrifuged at 1,500 rpm for 5 minutes. The pelletized cells were resuspended in red blood cell (RBC) lysis buffer, re-centrifuged at 1,500 rpm for 5 minutes, and then cultured in macrophage medium (DMEM supplemented with 10% FBS, 1% penicillin/streptomycin, and 10 ng/mL M-CSF) at 37° C. and 5% CO2 for 3 days (Tanaka S, et al. (1993) J Clin Invest 91(1):257-63) in either 100 mm tissue culture dishes, 4-well or 8-well chamber slides, or 48-well or 96-well tissue culture plates. The medium was changed every other day. To induce osteoclastogenic differentiation, BM cells cultured for 3 days in macrophage medium were further cultured for 5-7 days in osteoclast differentiation medium (DMEM supplemented with 10% FCS, 10 ng/mL M-CSF, and 100 ng/mL RANKL) (McHugh K P, et al. (2000) J Clin Invest 105(4):433-40; Zou W, et al. (2008) Mol Cell 31(3):422-31). These BM-derived osteoclasts were primarily used for the various assays in this study. […] TRAP^+ multinucleated osteoclasts (>3 nuclei) were quantified with the use of a Nikon digital microscope. Osteoclast-mediated bone resorptive activity was quantified using the pit assay (Xu D, et al. (2004) Biochemical Journal 383(Pt 2):219-225). […]

[6] = orthopedic implant; cited from earlier work

Row | Structure (SMILES) | tumor burden [1] | osteoclast-mediated bone resorption (pits formed on dentin slices) ([2]; BMM from wild type mice in osteoclast medium, NSC-87877 50 μM, 10 days) | ability to resorb bone matrix (pits on dentin slices) ([2]; co-cultured 10 days on dentin slices, FIG. 5: NSC-87877 50 nM, Aldronates 25 nM, or combination) | toxicity in vivo (death versus control-treated or untreated mice) [3] | toxicity in vivo (death versus control-treated or untreated mice) ([3]; listed as NSC 87877) | expression of osteoclastogenic marker genes [4] | number of osteoclasts (formation of TRAP+ multinucleated osteoclasts) [5] | bone ongrowth and shear strength [6]
1 | O=S(=O)(O)c1ccc2cc(/N=N/c3cc(S(=O)(=O)O)c4cccnc4c3O)ccc2c1 [NSC87877] | effective in reducing tumor burden | formed only a few small pits; also recorded: markedly reduced | inhibited | did not die significantly sooner | lack of toxicity | significantly inhibited | inhibited | –
2 | NCCCC(O)(P(=O)(O)O)P(=O)(O)O [Alendronate] | – | – | – | – | – | – | – | increase
